The source made the active and inactive calls. The rule behind the calls is not given here.
The compounds below were run on NCI-H460 (assay: Growth inhibition of human NCI-H460 cells at 10^-5 M incubated for 48 hrs by sulforhodamine B assay relative to control). Details: not given.
Format: functional

Compound | growth inhibition (GI)
Clc1nc2ccc(Br)cc2cc1Cn1nnnc1Cc1ccccc1 | Active
COc1ccc2nc(Cl)c(Cn3nnnc3Cc3ccccc3)cc2c1 | Active
Clc1nc2ccccc2cc1Cn1nnc(CSc2ccccc2)n1 | Active
COc1ccc2nc(Cl)c(Cn3nnnc3CSc3ccccc3)cc2c1 | Active
Cc1ccc2nc(Cl)c(Cn3nnnc3CSc3ccccc3)cc2c1 | Active
Cc1ccc2nc(Cl)c(Cn3nnc(CSc4ccccc4)n3)cc2c1 | Active
Fc1ccc2nc(Cl)c(Cn3nnc(CSc4ccccc4)n3)cc2c1 | Active

Same assay, conditions: NCI-H460, 48 h, read-out: GI

Compound | inhibition of growth at 10 µM [%]
Clc1nc2ccccc2cc1Cn1nnc(Cc2ccccc2)n1 | 25.7
COc1ccc2nc(Cl)c(Cn3nnc(Cc4ccccc4)n3)cc2c1 | 60

Each compound was assayed on NCI-H522 (assay: Growth inhibition of human NCI-H522 cells at 10^-5 M incubated for 48 hrs by sulforhodamine B assay relative to control). Details: not given.
Format: functional

Compound | growth inhibition (GI)
Clc1nc2ccc(Br)cc2cc1Cn1nnnc1Cc1ccccc1 | Active
COc1ccc2nc(Cl)c(Cn3nnnc3Cc3ccccc3)cc2c1 | Active
Clc1nc2ccccc2cc1Cn1nnc(CSc2ccccc2)n1 | Active
COc1ccc2nc(Cl)c(Cn3nnnc3CSc3ccccc3)cc2c1 | Active
Cc1ccc2nc(Cl)c(Cn3nnnc3CSc3ccccc3)cc2c1 | Active
Cc1ccc2nc(Cl)c(Cn3nnc(CSc4ccccc4)n3)cc2c1 | Active
Fc1ccc2nc(Cl)c(Cn3nnc(CSc4ccccc4)n3)cc2c1 | Active

Same assay, conditions: NCI-H522, 48 h, read-out: GI

Compound | inhibition of growth at 10 µM [%]
Clc1nc2ccccc2cc1Cn1nnc(Cc2ccccc2)n1 | 57.9
COc1ccc2nc(Cl)c(Cn3nnc(Cc4ccccc4)n3)cc2c1 | 62

Each compound was assayed on HCT-116 (assay: Growth inhibition of human HCT116 cells at 10^-5 M incubated for 48 hrs by sulforhodamine B assay relative to control). Details: not given.
Format: functional

Compound | growth inhibition (GI)
Clc1nc2ccc(Br)cc2cc1Cn1nnnc1Cc1ccccc1 | Active
COc1ccc2nc(Cl)c(Cn3nnnc3Cc3ccccc3)cc2c1 | Active
Clc1nc2ccccc2cc1Cn1nnc(CSc2ccccc2)n1 | Active
COc1ccc2nc(Cl)c(Cn3nnnc3CSc3ccccc3)cc2c1 | Active
Cc1ccc2nc(Cl)c(Cn3nnnc3CSc3ccccc3)cc2c1 | Active
Cc1ccc2nc(Cl)c(Cn3nnc(CSc4ccccc4)n3)cc2c1 | Active
Fc1ccc2nc(Cl)c(Cn3nnc(CSc4ccccc4)n3)cc2c1 | Active

Same assay, conditions: HCT-116, 48 h, read-out: GI

Compound | inhibition of growth at 10 µM [%]
Clc1nc2ccccc2cc1Cn1nnc(Cc2ccccc2)n1 | 64.9
COc1ccc2nc(Cl)c(Cn3nnc(Cc4ccccc4)n3)cc2c1 | 70.8

The compounds below were run on Malme-3M (assay: Growth inhibition of human MALME-3M cells at 10^-5 M incubated for 48 hrs by sulforhodamine B assay relative to control). Details: not given.
Format: functional

Compound | growth inhibition (GI)
Clc1nc2ccc(Br)cc2cc1Cn1nnnc1Cc1ccccc1 | Active
COc1ccc2nc(Cl)c(Cn3nnnc3Cc3ccccc3)cc2c1 | Active
Clc1nc2ccccc2cc1Cn1nnc(CSc2ccccc2)n1 | Active
COc1ccc2nc(Cl)c(Cn3nnnc3CSc3ccccc3)cc2c1 | Active
Cc1ccc2nc(Cl)c(Cn3nnnc3CSc3ccccc3)cc2c1 | Active
Cc1ccc2nc(Cl)c(Cn3nnc(CSc4ccccc4)n3)cc2c1 | Active
Fc1ccc2nc(Cl)c(Cn3nnc(CSc4ccccc4)n3)cc2c1 | Active

Same assay, conditions: read-out: GI

Compound | inhibition of growth at 10 µM [%]
Clc1nc2ccccc2cc1Cn1nnc(Cc2ccccc2)n1 | 34.4
COc1ccc2nc(Cl)c(Cn3nnc(Cc4ccccc4)n3)cc2c1 | 65.6

These compounds were tested on MDA-MB-435 (assay: Growth inhibition of human MDA-MB-435 cells at 10^-5 M incubated for 48 hrs by sulforhodamine B assay relative to control). Details: not given.
Format: functional

Compound | growth inhibition (GI)
Clc1nc2ccc(Br)cc2cc1Cn1nnnc1Cc1ccccc1 | Active
COc1ccc2nc(Cl)c(Cn3nnnc3Cc3ccccc3)cc2c1 | Active
Clc1nc2ccccc2cc1Cn1nnc(CSc2ccccc2)n1 | Active
COc1ccc2nc(Cl)c(Cn3nnnc3CSc3ccccc3)cc2c1 | Active
Cc1ccc2nc(Cl)c(Cn3nnnc3CSc3ccccc3)cc2c1 | Active
Cc1ccc2nc(Cl)c(Cn3nnc(CSc4ccccc4)n3)cc2c1 | Active
Fc1ccc2nc(Cl)c(Cn3nnc(CSc4ccccc4)n3)cc2c1 | Active

Same assay, conditions: MDA-MB-435, 48 h, read-out: GI

Compound | inhibition of growth at 10 µM [%]
Clc1nc2ccccc2cc1Cn1nnc(Cc2ccccc2)n1 | 34.7
COc1ccc2nc(Cl)c(Cn3nnc(Cc4ccccc4)n3)cc2c1 | 70.7

The compounds below were run on SK-MEL-2 (assay: Growth inhibition of human SK-MEL-2 cells at 10^-5 M incubated for 48 hrs by sulforhodamine B assay relative to control). Details: not given.
Format: functional

Compound | growth inhibition (GI)
Clc1nc2ccc(Br)cc2cc1Cn1nnnc1Cc1ccccc1 | Active
COc1ccc2nc(Cl)c(Cn3nnnc3Cc3ccccc3)cc2c1 | Active
Clc1nc2ccccc2cc1Cn1nnc(CSc2ccccc2)n1 | Active
COc1ccc2nc(Cl)c(Cn3nnnc3CSc3ccccc3)cc2c1 | Active
Cc1ccc2nc(Cl)c(Cn3nnnc3CSc3ccccc3)cc2c1 | Active
Cc1ccc2nc(Cl)c(Cn3nnc(CSc4ccccc4)n3)cc2c1 | Active
Fc1ccc2nc(Cl)c(Cn3nnc(CSc4ccccc4)n3)cc2c1 | Active

Same assay, conditions: SK-MEL-2, 48 h, read-out: GI

Compound | inhibition of growth at 10 µM [%]
Clc1nc2ccccc2cc1Cn1nnc(Cc2ccccc2)n1 | 41.2
COc1ccc2nc(Cl)c(Cn3nnc(Cc4ccccc4)n3)cc2c1 | 50.4

Each compound was assayed on IGROV-1 (assay: Growth inhibition of human IGROV1 cells at 10^-5 M incubated for 48 hrs by sulforhodamine B assay relative to control). Details: not given.
Format: functional

Compound | growth inhibition (GI)
Clc1nc2ccc(Br)cc2cc1Cn1nnnc1Cc1ccccc1 | Active
COc1ccc2nc(Cl)c(Cn3nnnc3Cc3ccccc3)cc2c1 | Active
Clc1nc2ccccc2cc1Cn1nnc(CSc2ccccc2)n1 | Active
COc1ccc2nc(Cl)c(Cn3nnnc3CSc3ccccc3)cc2c1 | Active
Cc1ccc2nc(Cl)c(Cn3nnnc3CSc3ccccc3)cc2c1 | Active
Cc1ccc2nc(Cl)c(Cn3nnc(CSc4ccccc4)n3)cc2c1 | Active
Fc1ccc2nc(Cl)c(Cn3nnc(CSc4ccccc4)n3)cc2c1 | Active

Same assay, conditions: IGROV-1, 48 h, read-out: GI

Compound | inhibition of growth at 10 µM [%]
Clc1nc2ccccc2cc1Cn1nnc(Cc2ccccc2)n1 | 49.1
COc1ccc2nc(Cl)c(Cn3nnc(Cc4ccccc4)n3)cc2c1 | 56.8

These compounds were tested on NCI/ADR-RES (assay: Growth inhibition of human NCI-ADR-RES cells at 10^-5 M incubated for 48 hrs by sulforhodamine B assay relative to control). Details: not given.
Format: functional

Compound | growth inhibition (GI)
Clc1nc2ccc(Br)cc2cc1Cn1nnnc1Cc1ccccc1 | Active
COc1ccc2nc(Cl)c(Cn3nnnc3Cc3ccccc3)cc2c1 | Active
Clc1nc2ccccc2cc1Cn1nnc(CSc2ccccc2)n1 | Active
COc1ccc2nc(Cl)c(Cn3nnnc3CSc3ccccc3)cc2c1 | Active
Cc1ccc2nc(Cl)c(Cn3nnnc3CSc3ccccc3)cc2c1 | Active
Cc1ccc2nc(Cl)c(Cn3nnc(CSc4ccccc4)n3)cc2c1 | Active
Fc1ccc2nc(Cl)c(Cn3nnc(CSc4ccccc4)n3)cc2c1 | Active

Same assay, conditions: read-out: GI

Compound | inhibition of growth at 10 µM [%]
Clc1nc2ccccc2cc1Cn1nnc(Cc2ccccc2)n1 | 47.9
COc1ccc2nc(Cl)c(Cn3nnc(Cc4ccccc4)n3)cc2c1 | 79.9

The compounds below were run on CAKI-1 (assay: Growth inhibition of human Caki1 cells at 10^-5 M incubated for 48 hrs by sulforhodamine B assay relative to control). Details: not given.
Format: functional

Compound | growth inhibition (GI)
Clc1nc2ccc(Br)cc2cc1Cn1nnnc1Cc1ccccc1 | Active
COc1ccc2nc(Cl)c(Cn3nnnc3Cc3ccccc3)cc2c1 | Active
Clc1nc2ccccc2cc1Cn1nnc(CSc2ccccc2)n1 | Active
COc1ccc2nc(Cl)c(Cn3nnnc3CSc3ccccc3)cc2c1 | Active
Cc1ccc2nc(Cl)c(Cn3nnnc3CSc3ccccc3)cc2c1 | Active
Cc1ccc2nc(Cl)c(Cn3nnc(CSc4ccccc4)n3)cc2c1 | Active
Fc1ccc2nc(Cl)c(Cn3nnc(CSc4ccccc4)n3)cc2c1 | Active

Same assay, conditions: CAKI-1, 48 h, read-out: GI

Compound | inhibition of growth at 10 µM [%]
Clc1nc2ccccc2cc1Cn1nnc(Cc2ccccc2)n1 | 59.5
COc1ccc2nc(Cl)c(Cn3nnc(Cc4ccccc4)n3)cc2c1 | 56.1

These compounds were tested on DU-145 (assay: Growth inhibition of human DU145 cells at 10^-5 M incubated for 48 hrs by sulforhodamine B assay relative to control). Details: not given.
Format: functional

Compound | growth inhibition (GI)
Clc1nc2ccc(Br)cc2cc1Cn1nnnc1Cc1ccccc1 | Active
COc1ccc2nc(Cl)c(Cn3nnnc3Cc3ccccc3)cc2c1 | Active
Clc1nc2ccccc2cc1Cn1nnc(CSc2ccccc2)n1 | Active
COc1ccc2nc(Cl)c(Cn3nnnc3CSc3ccccc3)cc2c1 | Active
Cc1ccc2nc(Cl)c(Cn3nnnc3CSc3ccccc3)cc2c1 | Active
Cc1ccc2nc(Cl)c(Cn3nnc(CSc4ccccc4)n3)cc2c1 | Active
Fc1ccc2nc(Cl)c(Cn3nnc(CSc4ccccc4)n3)cc2c1 | Active

Same assay, conditions: DU-145, 48 h, read-out: GI

Compound | inhibition of growth at 10 µM [%]
Clc1nc2ccccc2cc1Cn1nnc(Cc2ccccc2)n1 | 24.8
COc1ccc2nc(Cl)c(Cn3nnc(Cc4ccccc4)n3)cc2c1 | 38.4

These compounds were tested on MDA-MB-468 (assay: Growth inhibition of human MDA-MB-468 cells at 10^-5 M incubated for 48 hrs by sulforhodamine B assay relative to control). Details: not given.
Format: functional

Compound | growth inhibition (GI)
Clc1nc2ccc(Br)cc2cc1Cn1nnnc1Cc1ccccc1 | Active
COc1ccc2nc(Cl)c(Cn3nnnc3Cc3ccccc3)cc2c1 | Active
Clc1nc2ccccc2cc1Cn1nnc(CSc2ccccc2)n1 | Active
COc1ccc2nc(Cl)c(Cn3nnnc3CSc3ccccc3)cc2c1 | Active
Cc1ccc2nc(Cl)c(Cn3nnnc3CSc3ccccc3)cc2c1 | Active
Cc1ccc2nc(Cl)c(Cn3nnc(CSc4ccccc4)n3)cc2c1 | Active
Fc1ccc2nc(Cl)c(Cn3nnc(CSc4ccccc4)n3)cc2c1 | Active

Same assay, conditions: MDA-MB-468, 48 h, read-out: GI

Compound | inhibition of growth at 10 µM [%]
Clc1nc2ccccc2cc1Cn1nnc(Cc2ccccc2)n1 | 88.9
COc1ccc2nc(Cl)c(Cn3nnc(Cc4ccccc4)n3)cc2c1 | 70.1

Each compound was assayed on Candida albicans (assay: Antifungal activity against Candida albicans at 100 ug/ml by disc diffusion method). Details: read-out: IZ.
Format: functional

Compound | zone of inhibition at 100 µg/mL [mm]
Clc1nc2ccccc2cc1Cn1nnc(Cc2ccccc2)n1 | 10
Clc1nc2ccc(Br)cc2cc1Cn1nnnc1Cc1ccccc1 | 16
COc1ccc2nc(Cl)c(Cn3nnc(Cc4ccccc4)n3)cc2c1 | 16
COc1ccc2nc(Cl)c(Cn3nnnc3Cc3ccccc3)cc2c1 | 15
Clc1nc2ccccc2cc1Cn1nnc(CSc2ccccc2)n1 | 10
COc1ccc2nc(Cl)c(Cn3nnnc3CSc3ccccc3)cc2c1 | 18
Cc1ccc2nc(Cl)c(Cn3nnnc3CSc3ccccc3)cc2c1 | 12
Cc1ccc2nc(Cl)c(Cn3nnc(CSc4ccccc4)n3)cc2c1 | 12
Fc1ccc2nc(Cl)c(Cn3nnc(CSc4ccccc4)n3)cc2c1 | 18

Source: ChEMBL document CHEMBL4004849, “Tetrazolylmethyl quinolines: Design, docking studies, synthesis, anticancer and antifungal analyses” (2017)
